In US20040023884A1, “Biologically active peptides from functional domains of bactericidal/permeability-increasing protein and uses thereof” (priority 1993, published 2004):
Values after ≈ are worked out from the molar mass of the structure shown. Bridge positions count the residues as written; N and C are the ends. Square brackets hold non-standard residues; d marks the D form. Ends that are not written are not given here. Peptide text beside a SMILES is read from it. 1Nal = N[C@@H](Cc1cccc2ccccc12)C(=O)O

Key:
Type in all cases: cell-based
[1] = test system: rough mutant E. coli J5 bacteria; test: Radial diffusion bactericidal assay, E. coli J5; conditions: radial diffusion; PROBIT analysis; E. coli J5 (rough)
In short: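 Log-phase bacteria, washed in 10 mM sodium phosphate pH 7.4, were seeded at 4×10^6 CFU/mL in underlayer agarose. BPI fragments (5 or 10 μL) went into 3 mm wells for 3 h at 37° C., then overlayer agarose was added. After overnight 37° C. incubation, clearing zones were measured by micrometer.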

[2] = test system: E. coli 0111:B4 (smooth) bacteria; test: Radial diffusion bactericidal assay, E. coli 0111:B4; conditions: radial diffusion; PROBIT analysis; E. coli O111:B4 (smooth)
[3] = test system: Candida albicans
[4] = test system: Staphylococcus aureus; test: Radial diffusion bactericidal assay, Staphylococcus aureus; conditions: radial diffusion; PROBIT analysis; S. aureus

Compound | pmol added to well to achieve a 30 mm^2 bactericidal zone, E. coli J5 [1] | pmol added to well to achieve a 30 mm^2 bactericidal zone, E. coli O111:B4 [2] | MIC C. alb [3] | pmol added to well to achieve a 30 mm^2 bactericidal zone, S. aureus [4]
C[C@@H]1NC(=O)[C@H](CCCCN)NC(=O)[C@H](Cc2c[nH]c3ccccc23)NC(=O)[C@H](CCCCN)NC(=O)[C@@H](N)CSSC[C@@H](C(N)=O)NC(=O)[C@H](Cc2ccccc2)NC(=O)[C@H](CCCNC(=N)N)NC(=O)[C@H](CCCCN)NC(=O)[C@H](CCC(N)=O)NC1=O [BPI.169] (H-CKWKAQKRFC-NH2; disulfide 1-10; N-terminus and C-terminus assumed) | 4,893.83 pmol | 36,025.95 pmol | >100.00 µg/mL | 17,281.61 pmol
KWKAQKRF [BPI.167] | 25,489.99 pmol | b (no detectable activity up to 5 μg/well) | >50.00 µg/mL | b (no detectable activity up to 5 μg/well)
CC(C)C[C@H](NC(=O)[C@H](Cc1ccccc1)NC(=O)[C@H](CCCNC(=N)N)NC(=O)[C@H](Cc1cccc2ccccc12)NC(=O)[C@H](CCC(N)=O)NC(=O)[C@H](C)NC(=O)[C@H](CCCCN)NC(=O)[C@H](Cc1cccc2ccccc12)NC(=O)[C@H](CCCCN)NC(=O)[C@H](CCCCN)NC(=O)[C@H](CC(C)C)NC(=O)[C@H](Cc1ccccc1)NC(=O)[C@H](CCCNC(=N)N)NC(=O)[C@H](Cc1cccc2ccccc12)NC(=O)[C@H](CCC(N)=O)NC(=O)[C@H](C)NC(=O)[C@H](CCCCN)NC(=O)[C@H](Cc1cccc2ccccc12)NC(=O)[C@@H](N)CCCCN)C(=O)N[C@@H](CCCCN)C(N)=O [BPI.160] (H-K[1Nal]KAQ[1Nal]RFLKK[1Nal]KAQ[1Nal]RFLK-NH2; N-terminus and C-terminus assumed) | 288.78 pmol | 2,967.57 pmol | >100.00 µg/mL | 352,608.37 pmol
CC[C@H](C)[C@H](NC(=O)[C@H](CC(C)C)NC(=O)[C@H](Cc1c[nH]c2ccccc12)NC(=O)CNC(=O)[C@@H](NC(=O)[C@H](CCCCN)NC(=O)[C@H](CO)NC(=O)[C@H](CCCCN)NC(=O)[C@H](CCCCN)NC(=O)[C@H](CC(C)C)NC(=O)[C@H](Cc1ccccc1)NC(=O)[C@H](CCCNC(=N)N)NC(=O)[C@H](Cc1cccc2ccccc12)NC(=O)[C@H](CCC(N)=O)NC(=O)[C@H](C)NC(=O)[C@H](CCCCN)NC(=O)[C@H](Cc1cccc2ccccc12)NC(=O)[C@@H](N)CCCCN)C(C)C)C(=O)N[C@@H](CCC(N)=O)C(=O)N[C@@H](CC(C)C)C(=O)N[C@@H](Cc1c[nH]c2ccccc12)C(=O)N[C@@H](Cc1c[nH]cn1)C(=O)N[C@@H](CCCCN)C(=O)N[C@@H](CCCCN)C(N)=O [BPI.159] (H-K[1Nal]KAQ[1Nal]RFLKKSKVGWLIQLWHKK-NH2; N-terminus and C-terminus assumed) | 765.43 pmol | 152,678.66 pmol | 50.00 µg/mL (≈ 15.9 µM) | 14,387.00 pmol
CC[C@H](C)[C@H](NC(=O)[C@H](CC(C)C)NC(=O)[C@H](Cc1cccc2ccccc12)NC(=O)CNC(=O)[C@@H](NC(=O)[C@H](CCCCN)NC(=O)[C@H](CO)NC(=O)[C@@H](N)CCCCN)C(C)C)C(=O)N[C@@H](CCC(N)=O)C(=O)N[C@@H](CC(C)C)C(=O)N[C@@H](Cc1ccccc1)C(=O)N[C@@H](Cc1cccc2ccccc12)C(=O)N[C@@H](CCCCN)C(=O)N[C@@H](CCCCN)C(=O)O [BPI.148, KSKVGAβ-(1-naphthyl)LIQLFAβ-(1-naphthyl)KK] (H-KSKVG[1Nal]LIQLF[1Nal]KK-OH; N-terminus and C-terminus assumed) | 4,206.57 pmol | b (no detectable activity up to 5 μg/well) | 50.00 µg/mL (≈ 28 µM) | b (no detectable activity up to 5 μg/well)
